SMILES strings stand for the structures.

The subject of one assay is T cells. Put plainly: T cell proliferation (anti-CD3/anti-CD28 dynabeads, CCK-8). Type of assay: cell-based, mice. The settings on record: Table 4, mouse T cells, 72 hours after dynabeads, read-out: Scoring (IC50, cell proliferation). On the procedure:
Spleens were obtained from six male, CD-1 outbred mice, approximately 8 weeks old. Cells were harvested under sterile conditions by forcing each spleen though a cell filter (pore size 100 μm diameter). A homogenous cell suspension was obtained by washing the cells in fresh medium and passing cells through a smaller cell filter (pore size 70 μm).
Untouched T cells were isolated using the Pan T cell isolation kit (Miltenyi Biotech). Briefly, cells were counted and incubated with the required volume of antibody cocktail for 5 minutes at 4° C. before addition of microbeads and incubation for 10 minutes at 4° C. Labeled cells were retained in a magnetic column while unlabeled cells (T cells) passed through the column and were retained for use in the assay.
Cell viability was assessed by Trypan Blue exclusion and found to be >99% prior to transfer to plates. Isolated T cells were seeded out in 96 well plates at a density of 50,000 cells per well and allowed to incubate for 60 minutes in a humidified cell culture (37° C., 5% CO2) incubator prior to compound treatment. The media used for this assay (TexMACS, Miltenyi Biotech) was previously optimized for proliferation of T cells in serum free conditions.
Representative compounds of the invention (i.e., test compounds) were prepared as 30 mM stocks in 100% DMSO. Test compounds were initially diluted in media to yield 3 mM stocks before an additional 1:10 dilution in media was performed to yield working stocks of 300 μM (1% DMSO). Subsequent dilutions were performed in media (supplemented with 1% DMSO). When added to the assay plates (1:10 dilution), these yielded final concentrations in the assay plates of in 0.1% DMSO. The reference compound, Cyclosporin A, was prepared in an identical manner as above.
Unstimulated and Stimulated Control wells received an identical volume of TexMACS media/1% DMSO at this time, resulting in a final concentration of 0.1% DMSO across the plate. Mouse anti-CD3/anti-CD28 dynabeads were prepared (following the manufacturers' instructions) in TexMACS media and added to appropriate wells to achieve a final concentration of 1 bead per cell. Unstimulated Control wells then received an identical volume of TexMACS. Plates were centrifuged 72 hours after addition of dynabeads, (300×g for 3 minutes) to pellet the cells and 60% of the supernatant was removed to a fresh plate for analysis by ELISA. After removal of 60% of the supernatant for subsequent ELISA, cell proliferation was assessed using the CCK-8 assay.
Average response by the standard compound, cyclosporin A, was 1 uM.

A further assay has as its system Mice (male, C57Bl/6). Put plainly: Formalin pain assay in mice. Type of assay: in vivo. On the procedure:
Mice (male, C57BL/6) were placed singly in a Perspex chamber for approximately 30 min on three successive days to acclimate and thereby reduce stress-induced behaviors. On the fourth day, the experimental animals received a 25 μl injection of 2.5% formalin beneath the left plantar skin using a 29-gauge syringe. […] The total time spent on flinches/licking/biting of the hind paw was recorded by visual observation for every 5 min period/interval for total observation duration of 60 min in two phases, the early phase (0-5 min) and the late phase (15-40 min). Observers were blinded to the treatment group allocation.
For test compounds, the % protection from 0-60 min was used to assess activity. Scoring for the test compounds was as follows: “A” represents a % protection of 81 to 100%, “B” represents a % protection of 61 to 80%, “C” represents a % protection of 31 to 60% and “D” represents a % protection of 0 to 30%.

The test system of the next assay is male Sprague-Dawley rats. The experiment in a line: Rat chronic prostatitis/chronic pelvic pain (carrageenan). Type of assay: in vivo. As to conditions: Day 3, 30 mg/kg dose, oral gavage QD. On the procedure:
Representative compounds of the invention (i.e., test compounds) were administered for 11 days by oral gavage in 0.9% saline (3, 10 or 30 mg/kg QD; 5 mL/kg dose volume) to male Sprague-Dawley rats. Carrageenan-mediated chronic prostatitis/chronic pelvic pain (CP/CPPS) established in rats (10 per group) by administration of an intraprostatic injection of carrageenan (˜12.5 μL/lobe of a 30 mg/mL solution) into both ventral prostate lobes, on Day 0. Referred mechanical sensitivity was measured on Days 0, 1, 3 and 7, 2 hours after test compound, or vehicle (saline) administration, by applying 6 von Frey filaments with increasing forces of 0.16-2 g to the scrotal skin area, 3 times each for 1-2 seconds, with a 5-second interval between applications. Responses were scored (zero-no response; one-reaction of the animal, two-jump, and three-licking the site) and expressed as the nociceptive threshold for each day of assessment. Ibuprofen was used as a reference standard.
According to the above assay, Compound Ia-1 restored nociceptive threshold to 65% of baseline on Day 3 at the 30 mg/kg dose as compared to the reference standard, ibuprofen (300 mg/kg), which restored the threshold to 120% of the baseline.

Assay [1] has as its system female Sprague-Dawley rats. Put plainly: Cyclophosphamide-induced cystitis in rats (visceral pain). Format: in vivo. The settings on record: 0.3 to 1.0 mg/kg dose, oral gavage four days; 4 h after cyclophosphamide. As for the experimental part: Representative compounds of the invention (i.e., test compounds) were administered to female Sprague-Dawley rats, for four days by oral gavage in 0.9% saline. Two hours after the fourth dose, the rats were challenged by intraperitoneal administration of cyclophosphamide (150 mg/kg). Referred mechanical sensitivity was measured four hours later by applying a series of eight von Frey filaments to the lower abdomen, three times each for 1-2 seconds with a 5 second interval between applications. Responses were scored (zero-no response; one-response, two-response and change of position, and three-response, change of position and licking the site or vocalization), totaled and the percent of maximal possible nociceptive score calculated. Ibuprofen was used as a reference standard.

For `C=C1CC[C@H]2[C@H](CN)[C@@H]([C@@]3(C)Cc4cn[nH]c4C[C@@H]3CO)CC[C@]12C` [Ia-1, ((5R,6S)-5-((3aS,4R,5S,7aS)-4-(aminomethyl)-7a-methyl-1-methyleneoctahydro-1H-inden-5-yl)-5-methyl-4,5,6,7-tetrahydro-1H-indazol-6-yl)methanol], in the assay with T cells, the IC50 lay in the range of 6 to 15 µM. Moreover, in the assay with Mice (male, C57Bl/6) (30 mg/kg dose, 0-5 min), the “% inhibition, early phase (neurogenic pain)” value amounted to 59%. Besides, the “% inhibition, late phase (inflammatory pain)” value with Mice (male, C57Bl/6) (30 mg/kg dose, 15-40 min) worked out at 52%. Also, the “Scoring (% protection from 0-60 min)” value in the assay on Mice (male, C57Bl/6) (Table 7, formalin 2.5%, left plantar) was “B (a % protection of 61 to 80%)”. In the assay with male Sprague-Dawley rats, the “nociceptive threshold restored, % of baseline” value was 65%. The “nociceptive threshold, % of baseline (pre-challenge) levels” value in assay [1] was 70-91%.

The values above are taken from patent US11420962B2, “Indene derivatives useful in treating pain and inflammation” (TARO PHARMACEUTICALS INC., priority 2018, dated 2022).
